Active and inactive are the calls of the source. The calls are words filed in the database; no cut-off is given here.
What was measured:
NCI-H23 = assay: Antiproliferative activity against human NCI-H23 cells assessed as reduction in colony formation up to 20 uM supplemented with fresh medium containing compound every 3 days for 9 days by MTT staining based clonogenic assay; assay type: functional, cell-based; settings: time 9.0 day
PANC-1 = assay: Antiproliferative activity against human PANC-1 cells assessed as reduction in colony formation up to 20 uM supplemented with fresh medium containing compound every 3 days for 9 days by MTT staining based clonogenic assay; assay type: functional, cell-based; settings: time 9.0 day
BT-474 = assay: Antiproliferative activity against human BT-474 cells assessed as reduction in colony formation up to 20 uM supplemented with fresh medium containing compound every 3 days for 9 days by MTT staining based clonogenic assay; assay type: functional, cell-based; settings: time 9.0 day
NOMO-1 = assay: Cytotoxicity against human NOMO-1 cells measured after 8 days; assay type: functional, cell-based; settings: NOMO-1, 192 h
OCI-AML2 = assay: Cytotoxicity against human OCI-AML2 cells measured after 8 days; assay type: functional, cell-based; settings: OCI-AML2, 192 h
NCI-H187 = assay: Cytotoxicity against human NCI-H187 cells measured after 8 days; assay type: functional, cell-based; settings: NCI-H187, 192 h
NCI-H2171 = assay: Cytotoxicity against human NCI-H2171 cells measured after 8 days; assay type: functional, cell-based; settings: NCI-H2171, 192 h
RPMI-8226 = assay: Cytotoxicity against human RPMI-8226 cells measured after 8 days; assay type: functional, cell-based; settings: RPMI-8226, 192 h
NCI-H889 = assay: Cytotoxicity against human NCI-H889 cells measured after 8 days; assay type: functional, cell-based; settings: NCI-H889, 192 h
[1] = Cytotoxicity against human NCE-G 120 cells measured after 8 days; assay type: functional, cell-based; settings: NCE-G 120, 192 h
[2] = Cytotoxicity against human NCE-G 141 cells measured after 8 days; assay type: functional, cell-based; settings: NCE-G 141, 192 h
[3] = Cytotoxicity against human GOTO.P3 cells measured after 8 days; assay type: functional, cell-based; settings: GOTO.P3, 192 h
SU-DHL-8 = assay: Cytotoxicity against human SU-DHL-8 cells measured after 8 days; assay type: functional, cell-based; settings: SU-DHL-8, 192 h
[4] = Cytotoxicity against human COV413B cells measured after 8 days; assay type: functional, cell-based; settings: 192 h
[5] = Cytotoxicity against mouse 4T1-Luc cells measured after 8 days; assay type: functional, cell-based; settings: 192 h
EFO-27 = assay: Cytotoxicity against human EFO-27 cells measured after 8 days; assay type: functional, cell-based; settings: EFO-27, 192 h
MDA-MB-175-VII = assay: Cytotoxicity against human MDA-MB-175-VII cells measured after 8 days; assay type: functional, cell-based; settings: 192 h
HEp-2 = assay: Cytotoxicity against human HEp-2 cells measured after 8 days; assay type: functional, cell-based; settings: HEp-2, 192 h
HT-3 = assay: Cytotoxicity against human HT-3 cells measured after 8 days; assay type: functional, cell-based; settings: HT-3, 192 h
ME-180 = assay: Cytotoxicity against human ME-180 cells measured after 8 days; assay type: functional, cell-based; settings: ME-180, 192 h
[6] = Cytotoxicity against human PaTu 8988s cells measured after 8 days; assay type: functional, cell-based; settings: 192 h
[7] = Cytotoxicity against human 51BLim 10 cells measured after 8 days; assay type: functional, cell-based; settings: 51BLim 10, 192 h
C170 = assay: Cytotoxicity against human C170 cells measured after 8 days; assay type: functional, cell-based; settings: C170, 192 h
[8] = Cytotoxicity against human CL-11 cells measured after 8 days; assay type: functional, cell-based; settings: CL-11, 192 h
[9] = Cytotoxicity against human PK-45P cells measured after 8 days; assay type: functional, cell-based; settings: 192 h
[10] = Cytotoxicity against human PK-59 cells measured after 8 days; assay type: functional, cell-based; settings: PK-59, 192 h
T84 = assay: Cytotoxicity against human T84 cells measured after 8 days; assay type: functional, cell-based; settings: T84, 192 h
KYSE-30 = assay: Cytotoxicity against human KYSE-30 cells measured after 8 days; assay type: functional, cell-based; settings: KYSE-30, 192 h
[11] = Cytotoxicity against human JHH-4 cells measured after 8 days; assay type: functional, cell-based; settings: JHH-4, 192 h
SNU-398 = assay: Cytotoxicity against human SNU-398 cells measured after 8 days; assay type: functional, cell-based; settings: SNU-398, 192 h
SNU-638 = assay: Cytotoxicity against human SNU-638 cells measured after 8 days; assay type: functional, cell-based; settings: SNU-638, 192 h
[12] = Cytotoxicity against human HCC1534 cells measured after 8 days; assay type: functional, cell-based; settings: HCC1534, 192 h
[13] = Cytotoxicity against human HEC-59 cells measured after 8 days; assay type: functional, cell-based; settings: HEC-59, 192 h
Skut1B = assay: Cytotoxicity against human Skut1B cells measured after 8 days; assay type: functional, cell-based; settings: 192 h
[14] = biological target: GABA-A receptor; alpha-1/beta-2/gamma-2 (Homo sapiens) (UniProt P14867+P47870+P18507); assay: Inhibition of GABA alpha1/beta2/gamma2 (unknown origin) at 1 uM relative to control; assay type: protein-complex assay
GABA-B receptor = GABA-B receptor (Homo sapiens, UniProt O75899+Q9UBS5); assay: Inhibition of human GABA-B receptor at 10 uM relative to control; assay type: protein-complex assay
Sequence of GABA-B receptor (Q9UBS5 whole entry): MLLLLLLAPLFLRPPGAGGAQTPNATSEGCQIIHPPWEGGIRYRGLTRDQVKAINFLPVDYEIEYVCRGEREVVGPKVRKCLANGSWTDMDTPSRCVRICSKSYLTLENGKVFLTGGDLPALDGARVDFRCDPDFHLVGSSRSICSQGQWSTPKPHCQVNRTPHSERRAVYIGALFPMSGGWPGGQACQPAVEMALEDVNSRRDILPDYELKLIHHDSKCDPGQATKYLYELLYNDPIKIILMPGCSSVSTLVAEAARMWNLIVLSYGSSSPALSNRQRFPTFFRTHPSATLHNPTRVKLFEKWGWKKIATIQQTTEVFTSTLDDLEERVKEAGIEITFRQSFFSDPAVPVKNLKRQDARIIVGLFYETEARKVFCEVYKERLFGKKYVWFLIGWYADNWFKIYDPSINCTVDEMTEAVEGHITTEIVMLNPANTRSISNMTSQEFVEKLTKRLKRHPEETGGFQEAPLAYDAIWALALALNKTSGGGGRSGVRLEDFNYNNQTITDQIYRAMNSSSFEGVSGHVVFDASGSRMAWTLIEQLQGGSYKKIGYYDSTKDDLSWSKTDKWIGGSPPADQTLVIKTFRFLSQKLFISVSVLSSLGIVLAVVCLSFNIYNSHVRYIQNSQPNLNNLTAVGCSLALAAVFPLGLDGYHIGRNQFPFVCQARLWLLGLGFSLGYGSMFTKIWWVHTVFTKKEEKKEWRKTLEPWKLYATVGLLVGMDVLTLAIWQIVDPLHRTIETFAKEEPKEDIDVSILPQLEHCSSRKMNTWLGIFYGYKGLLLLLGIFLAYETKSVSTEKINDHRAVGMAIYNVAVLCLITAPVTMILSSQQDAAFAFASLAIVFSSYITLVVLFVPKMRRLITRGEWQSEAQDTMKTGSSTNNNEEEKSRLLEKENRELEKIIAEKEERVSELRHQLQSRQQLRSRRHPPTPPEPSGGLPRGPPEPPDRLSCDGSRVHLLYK
Sequence of GABA-B receptor (O75899 whole entry): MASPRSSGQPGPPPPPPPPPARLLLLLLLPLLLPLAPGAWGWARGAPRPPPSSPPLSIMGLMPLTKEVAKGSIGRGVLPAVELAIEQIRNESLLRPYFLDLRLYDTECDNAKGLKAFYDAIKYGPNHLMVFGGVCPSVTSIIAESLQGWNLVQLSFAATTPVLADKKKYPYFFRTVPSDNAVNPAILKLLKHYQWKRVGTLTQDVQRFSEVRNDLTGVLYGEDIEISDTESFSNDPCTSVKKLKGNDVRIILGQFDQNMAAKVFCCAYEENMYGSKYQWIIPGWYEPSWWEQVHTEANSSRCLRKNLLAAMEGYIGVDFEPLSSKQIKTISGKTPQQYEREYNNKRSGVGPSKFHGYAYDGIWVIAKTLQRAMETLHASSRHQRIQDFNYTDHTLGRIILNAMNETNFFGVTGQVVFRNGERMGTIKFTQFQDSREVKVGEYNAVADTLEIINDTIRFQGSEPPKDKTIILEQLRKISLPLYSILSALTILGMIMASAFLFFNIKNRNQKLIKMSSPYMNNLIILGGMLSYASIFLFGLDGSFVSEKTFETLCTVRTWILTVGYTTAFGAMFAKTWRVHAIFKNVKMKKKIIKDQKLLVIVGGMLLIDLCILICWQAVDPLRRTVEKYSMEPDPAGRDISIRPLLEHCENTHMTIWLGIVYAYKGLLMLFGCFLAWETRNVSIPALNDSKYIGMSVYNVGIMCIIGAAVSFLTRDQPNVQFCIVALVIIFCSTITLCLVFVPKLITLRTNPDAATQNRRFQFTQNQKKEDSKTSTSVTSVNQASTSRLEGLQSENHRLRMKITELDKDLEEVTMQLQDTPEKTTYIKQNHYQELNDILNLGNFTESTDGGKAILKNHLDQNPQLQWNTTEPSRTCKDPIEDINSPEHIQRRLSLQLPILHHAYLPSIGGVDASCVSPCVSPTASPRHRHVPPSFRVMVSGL

C/C=C/Cn1cc(-c2ccc(C(C)(C)O)cc2OC)c2cc[nH]c2c1=O
Activity (NCI-H23): inactive
Activity (PANC-1): inactive
Activity (BT-474): inactive
IC50 (NOMO-1): 20 µM
IC50 (OCI-AML2): 14.2 µM
IC50 (NCI-H187): 20 µM
IC50 (NCI-H2171): 20 µM
IC50 (RPMI-8226): 20 µM
IC50 (NCI-H889): 20 µM
IC50 [1]: 20 µM
IC50 [2]: 20 µM
IC50 [3]: 20 µM
IC50 (SU-DHL-8): 3.26 µM
IC50 [4]: 20 µM
IC50 [5]: 20 µM
IC50 (EFO-27): 20 µM
IC50 (MDA-MB-175-VII): 20 µM
IC50 (HEp-2): 20 µM
IC50 (HT-3): 20 µM
IC50 (ME-180): 20 µM
IC50 [6]: 20 µM
IC50 [7]: 20 µM
IC50 (C170): 20 µM
IC50 [8]: 20 µM
IC50 [9]: 20 µM
IC50 [10]: 20 µM
IC50 (T84): 20 µM
IC50 (KYSE-30): 20 µM
IC50 [11]: 20 µM
IC50 (SNU-398): 20 µM
IC50 (SNU-638): 20 µM
IC50 [12]: 20 µM
IC50 [13]: 20 µM
IC50 (Skut1B): 20 µM
inhibition [14]: 4%
IC50 (GABA-B receptor): 4 µM
